Source: patent US10238631B2, “Sesquiterpene derivatives and their use in inflammation or cancer treatment” (Academia Sinica, priority 2014, dated 2019)
pIC50: −log10 of the molar value. “And” between values parts separate entries of the source, which are not always exact repeats. Identical values can stand only once.

Tests used:
MDA-MB-231 mammary tumor = test: Orthotopic MDA-MB-231 mammary tumor growth in NOD/SCID mice; format: in vivo, mouse
Protocol: Mammary tumor response to DET analog (DETD-35) was studied using MDA-MB-231 cancer cell bearing NOD/SCID mice (6 weeks old). The mammary fat pad regions of mice were injected with 5×10^6 MDA-MB-231 cells in 100 μL (9.1 mg/mL) matrigel (Basement Membrane Matrix. Phenol Red-free) on day 0. Tumors were allowed to grow in the mice for 7 days, and then the animals were randomly assigned to three groups (n=5 per group): sham, tumor (vehicle) control and 10 mg/kg DETD-35 treatment group. DETD-35 was intraperitoneally […] injected every three days. The test mice were sacrificed by cervical dislocation at day 71, and the tumor were collected and measured for the volume (V) using calipers and calculated by the formula V=(L×W^2)/2, where L is the length and W is the width of tumor.

[1] = tested on: MDA-MB-231 lung metastasis; test: Lung metastasis of MDA-MB-231 cells in SCID mice; format: in vivo, mouse
Protocol: Female SCID mice (5 weeks old, average body weight 19.59±1.26 g) were assigned to 8 groups: PIX group (5 mg/kg paclitaxel), DETD-35-2 group (2 mg/kg DETD-35), DETD-35-10 group (10 mg/kg DETD-35). PTX-5+DETD-35-2 group (5 mg/kg paclitaxel and 2 mg/kg DETD-35 administration alternatively for eleven doses of paclitaxel (PTX) and ten doses of DETD-35 in total), tumor (vehicle) group (5% DMSO), and sham group (5% DMSO). Pre-DETD-35-10 group was the mice administered 10 mg/kg DETD-35 every two days for three doses before the i.v. injection of 1×10^6 MDA-MB-231 tumor cells at day 0. All other drug or compounds were administered i.p. every three days starting from day 1. At the end of experiment (day 71), the test mice were sacrificed by cervical dislocation. The lung, liver, kidney, and spleen organs were removed and recorded weights and calculated for organ index (% of organ weight/body weight). The number of tumor colonies on lungs of test mice was counted.

MDA-MB-231 cells = test: Compound-drug combination assay with PTX; format: cell-based, human; conditions: 0-4 μM compound, 0-25 nM PTX
Protocol: (§1) Cell proliferation was measured by MTT assay. Isobologram analysis and Chou-Talalay method was used to determine the effects of compound drug combinations. The interaction of DETDs and PLX4032 or PTX was determined by the combination index (CI), and the CI plot was generated using CompuSyn software. The combined effects of two compounds can be categorized as follows: CI=1 indicates additive interaction, CI<1 indicates synergism, and CI>1 indicates antagonism.
To investigate whether or not DETD-35 and DETD-39 act synergistically with PTX against MDA-MB-231 cell activity, anti-proliferation assay using MTT reagent was performed to obtain the IC60 value of each compound. […] Based on the IC60 values, DETD-35 or DETD-39 ranging from 0 to 4 μM and PIX from 0 to 25 nM were used for compound-drug combination study. Classic isobologram analysis and Chou-Talalay method were conducted to investigate the synergistic effect of compound and drug. Combination index (CI) was calculated with CalcuSyn software (Version 2.0, Biosoft) and expressed as CI vs. Fa (fraction affected). CI<1 indicates synergy; CI=1 indicates additive effect; and CI>1 indicates antagonism.

[2] = tested on: melanoma cell lines B16-F10, MeWo, A375, A2058, HTB-68; test: MTT cell viability assay, all melanoma cell lines; format: cell-based; conditions: 24 h, read-out: IC50 values over all types of melanoma cell lines
Outline: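 Cells seeded at 2×10^3 to 1×10^4 cells/well overnight, then exposed to compounds for 24 h to 72 h. Growth measured by MTT colorimetric assay; viability expressed as OD570 treated/OD570 vehicle (0.5% DMSO) ×100.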

A375 melanoma cells = test: Compound-drug combination assay with PLX4032; format: cell-based, human; conditions: DETD-35 0.1 to 1 μM, PLX4032 10 to 100 nM, 72 h
Protocol: as §1
To investigate whether or not DETD-35 show synergism with PLX4032 against A375 melanoma cells, we performed anti-proliferation assay using MTT reagent to obtain IC50 of each compound. […] The synergistic effect was quantified by combination index (CI) analysis as stated above.

[3] = tested on: phospho-MEK and phospho-ERK in A375-R cells; test: Western blot of MAPK signaling, A375-R; format: cell-based, human
Protocol: Total cellular proteins were prepared from test cells as previously described. Protein concentration was determined by the Bradford method (Bio-Rad). Protein samples were resolved by 5% to 20% gradient SDS-PAGE and then underwent immunoblotting. Primary antibodies against ERK1/2 and GAPDH were from Santa Cruz Biotechnology (Santa Cruz, Calif., USA) and MEK, phospho-ERK1/2 and phospho-MEK were from Cell Signaling Technology (Danvers, Mass., USA). Appropriate horseradish peroxidase-conjugated secondary antibodies were used. Protein bands reacting to specific antibody were visualized by use of enhanced chemiluminescence (Amersham) with exposure to chemiluminescence light film (BioMax; Kodak Co.).

C=C1C(=O)O[C@H]2CC3=C[C@@H](C/C(C)=C/[C@@H](OC(=O)Cc4cccc5ccccc45)[C@H]12)OC3=O [DETD-35]
effect on mouse body weight (MDA-MB-231 mammary tumor; 10 mg/kg i.p.): without affecting the mouse body weight | fold decrease of tumor volume at day-71 vs tumor control (MDA-MB-231 mammary tumor; 10 mg/kg i.p.): 1.8 folds | tumor growth vs control group (MDA-MB-231 mammary tumor; 10 mg/kg i.p. every three days, day-56): significantly delayed | tumor volume at day-71 (MDA-MB-231 mammary tumor; 10 mg/kg i.p. every three days, tumor control 1268): 712 mm^3 | body weight ([1]; 2 mg/kg group): slightly lower than other groups with no statistical difference | reduction of number of tumor foci in lungs vs tumor control ([1]; post-treatment, 2 mg/kg i.p. every three days, not statistically significant): 9% | reduction of number of tumor foci in lungs vs tumor control ([1]; post-treatment, 10 mg/kg i.p. every three days): 50% | reduction of number of tumor foci in lungs vs tumor control ([1]; pretreatment, 10 mg/kg every two days, three doses before tumor cell injection): 83% | combination effect with PTX (isobologram, combination index) (MDA-MB-231 cells): acted synergistically | pIC50 [2]: 5.00 to 5.80 and 5.22 to 5.60 | combination effect with PLX4032 (combination index) (A375 melanoma cells): acted synergistically | effect on MAP kinases (phospho-MEK, phospho-ERK), A375-R [3]: inhibited reactivation of MAP kinases
